Tests used:
IL-6 = assay: In vivo inflammation study, LPS stimulated mouse model, serum IL-6 by ELISA; parameters: species or system BALB/c Albino male mice; details: 12 h before LPS
Experimental: (§1) To explore the anti-inflammatory properties of the new aspirin derivative in NP formulation in vivo, we used mice stimulated with lipopolysaccharide (LPS). […] In our studies following similar protocol in C57BL/6 or BALB/c (albino) mice, we observed enhanced levels of TNF-α and IL-6 in the serum after intraperitonial administration of 100 μg of LPS per animal and the levels peaked at 1.5 and 3 h, respectively for TNF-α and IL-6. Next, 8 week old BALB/c male mice were administered with saline or aspirin (20 mg/kg) or NT-(Asp)4-NP (20 mg/kg with respect to aspirin) or T-(Asp)4-NP (20 mg/kg with respect to aspirin) by i.v. injections and after 12 h, these animals were subsequently treated with intraperitonially injected LPS for 1.5 h and 3 h (FIG. 3A). Serum samples were isolated from the treated animals and pro-inflammatory and anti-inflammatory cytokine levels in the serum samples were evaluated by the enzyme-linked immunosorbent assay (ELISA).
(§2) Anti-inflammatory properties of T/NT-(Asp)4-NPs and aspirin were evaluated in LPS stimulated mouse model. […] The absorbance of the product formed was recorded at 450 nm using a BioTek Synergy HT well plate reader.

TNF-α = assay: In vivo inflammation study, LPS stimulated mouse model, serum TNF-α by ELISA; parameters: species or system BALB/c Albino male mice; details: 20 mg/kg (with respect to aspirin) i.v.
Experimental: as §1, §2

CC(=O)Oc1ccccc1C(=O)O [aspirin, acetylsalicylic acid]
serum IL-6 level compared to only LPS (IL-6; 20 mg/kg (with respect to aspirin) i.v., LPS for 1.5 h): significantly reduced | serum IL-6 level compared to LPS alone (IL-6; 20 mg/kg i.v., LPS for 3 h): reduced IL-6 levels | serum TNF-α level compared to only LPS (TNF-α; 12 h before LPS i.p., LPS for 1.5 h): non-significant | serum TNF-α level (TNF-α; 12 h before LPS, LPS for 3 h): did not show any significant differences
